Values quoted from earlier work, collected in patent publication US6685965B1, “PROCESS FOR STABILIZING LEVOGYRE ASCORBIC ACID (LAA), A STABLE AQUEOUS LAA COMPOSITION, A PROCESS FOR PREPARING A STABLE TOPICAL SOLUTION, AN EMULSION, A VITAMIN PRODUCT, AND A METHOD FOR COSMETIC, PHARMACEUTICAL OR NUTRITIONAL TREATMENT” (Industria E Comercio de Cosmeticos Natura LTDA., priority 1997, dated 2004).

Columns and labels:
[1] = tested on: glucosaminoglycines, components of the extracellular matrix of the dermis; settings: in the presence of LAA
human fibroblasts = human fibroblasts in vitro, in the presence of LAA

O=C1OC(C(O)CO)C(O)=C1O (stereo not shown) [LAA, levogyre ascorbic acid]
increase in deposition of glucosaminoglycines in the extracellular matrix [1]: 50%
increase in synthesis of glucosaminoglycines [1]: 30 to 90%
efficiency of mRNA in the translation of the polypeptidic chains of collagen (human fibroblasts): about 2 times
increase in the synthesis of mRNA (collagens of type I and type III) (human fibroblasts): 2 to 3 times
